Data on three compounds can be found in BindingDB's records for doi:10.1016/j.ejmech.2008.07.020 (Jadavpur University, 2009).

Each structure is given as a SMILES string.

The experiment has as its target Reverse transcriptase/RNaseH (Human immunodeficiency virus 1, UniProt Q72547). The experiment is described as follows: Inhibition of HIV1 reverse transcriptase.
In the case of `CCCC1CN(CCC)Cc2cccc3[nH]c(=O)n1c23` (stereo not drawn), the half-maximal inhibitory concentration (IC50) is 182 µM. Take `C[C@H]1Cn2c(=O)[nH]c3ccc(N)c(c32)CN1CC1CC1`: it took 849 µM to reach half-maximal inhibition (IC50). `CCCCN1Cc2cccc3[nH]c(=O)n(c23)C[C@@H]1C` came in with an IC50 of 100 µM.

By IC50 is commonly meant the midpoint of a concentration-inhibition curve. Read a low IC50 as greater potency.
